Results from paper PMC8545574, “Antioxidant, Anti-Inflammatory, and Antidiabetic Activities of Bioactive Compounds from the Fruits of Livistona chinensis Based on Network Pharmacology Prediction” (Oxidative Medicine and Cellular Longevity, 2021).

Experiments:
[1] = tested on: insulin-resistant HepG2 cells; test: Glucose consumption by insulin-resistant HepG2 cells; assay type: cell-based, human; settings: for increase of glucose consumption: insulin resistance model of HepG2 cells, compounds at the dose of 50 μM, 24 h; for effect on glucose uptake (in words): insulin-resistant HepG2 cells
Description: HepG2 cells were cultivated in DMEM (without phenol red) containing 10% fetal bovine serum at 37°C in a humidified 5% CO2 atmosphere. An insulin-resistant cell model was established in accordance with a previous method, with some modifications. Cells were seeded in a 96-well plate with 1 × 10^4 cells per well. After incubation for 24 h, the medium was replaced with serum-free medium (without phenol red) containing 5 × 10^−6 mol/L insulin and incubated for 24 h. The cell culture medium was then replaced with the samples at different concentrations. The compounds were first dissolved in DMSO and subsequently diluted with medium containing 1% FBS to achieve different concentrations. The final concentration of DMSO was no more than 0.1%. At the end of the 24 h incubation, glucose in the medium was measured using the glucose oxidase-peroxidase method kit (Nanjing Jiancheng Biological Co., Ltd.). The amount of glucose consumption was calculated as follows: (glucose of the DMEM − glucose concentration of each well).

[2] = DPPH free radical scavenging assay; assay type: biochemical; settings: mean ± SD, n = 3
Description: The DPPH free radical scavenging assay was performed according to a previously reported method. A series of different concentrations of the tested samples and the positive control ascorbic acid were mixed with freshly prepared DPPH (0.2 mM) in a 96-well microplate with a total volume of 150 μL. After leaving the mixture to react in the dark for 30 min, its absorbance was determined at 517 nm. All of the wells with only samples were set as blanks to obtain an absorbance value, which was subtracted from the test sample readings. The percentage inhibition (%) for each sample was calculated by the following formula: (1) Inhibition %=Absblank−Abssamples/Absblank×100%, where Absblank and Abssamples correspond to the absorbance units (at 517 nm) of DPPH solutions incubated in the absence and presence of the tested samples.

[3] = ABTS radical cation scavenging assay; assay type: biochemical; settings: mean ± SD, n = 3
Description: The ABTS radical cation (ABTS·+) was prepared by reacting ABTS with potassium persulfate following the method previously described. The ABTS radical cation (ABTS·+) was prepared by mixing with 2.45 mM potassium persulfate and equal volumes of an ABTS solution (7 mM), and then, they were permitted to react in the darkness at room temperature for 12–16 h. Thereafter, the ABTS reagent was diluted with methyl alcohol until reaching an absorbance of 0.70 ± 0.02 units at 734 nm. In a 96-well microplate, ABTS reagent (190 μL in each well) and samples (10 μL in each well) were incubated at room temperature for 20 min. To determine the antioxidant capacity by the ABTS method, the experimental conditions and protocol were identical to those of the DPPH assay. The only difference was that the absorbance was measured at 734 nm.

PTP1B [4] = target: T1, PTP1B (Homo sapiens, UniProt P18031); test: PTP1B inhibitory assay (p-NPP substrate)
T1 sequence (P18031 1-321 limits assumed): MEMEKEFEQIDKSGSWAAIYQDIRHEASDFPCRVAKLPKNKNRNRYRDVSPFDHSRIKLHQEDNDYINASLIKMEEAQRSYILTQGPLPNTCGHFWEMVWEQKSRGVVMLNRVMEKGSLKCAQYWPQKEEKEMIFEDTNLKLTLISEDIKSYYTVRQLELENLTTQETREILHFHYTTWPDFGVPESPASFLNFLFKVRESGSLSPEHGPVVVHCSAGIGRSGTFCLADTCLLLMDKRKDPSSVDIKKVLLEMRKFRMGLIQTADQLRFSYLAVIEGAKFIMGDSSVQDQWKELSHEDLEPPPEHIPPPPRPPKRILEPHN
Description: PTP1B (10 μg/mL stock solution) was dissolved in 10 mM citrate buffer (pH 6.0), 1 mM dithiothreitol (DTT), and 1 mM N, N, N′, N′-ethylenediaminetetraacetate (EDTA). 20.0 μL PTP1B stock solution and 60 μL citrate buffer were added to each well of a 96-well plastic plate.

[5] = target: α-Glucosidase (from Baker's yeast); test: α-Glucosidase inhibitory assay (p-NPG substrate); settings: read-out: IC50 α-Glucosidase inhibitory effect; mean ± SD, n = 3
Description: The extract, fractions, and compounds were dissolved in 5% DMSO and then diluted with phosphate buffer. Briefly, 80 μL PBS, 20 μL of varying concentrations of sample solutions, and 20 μL α-glucosidase solution (1.3 U/mL) were mixed and incubated in 96-well plates at 37°C for 5 min. The reaction started when 20 μL p-nitrophenyl-α-D-glucopyranoside (2.5 mM) was added to the plate. The reaction mixture was incubated for 15 min at 37°C, and then, 80 μL Na2CO3 (0.2 M) was added to stop the reaction.

PTP1B [6] = target: T1, PTP1B; test: PTP1B enzyme inhibition kinetic study (Lineweaver-Burk and Dixon plots); assay type: biochemical; set-up: purchased Abcam (Shanghai) Trading Co., Ltd. ab51277; settings: for Ki: determined by Dixon plots; for Inhibitory mode: determined by Lineweaver-Burk plots
Description: Lineweaver−Burk double reciprocal plot and Dixon plot were used to study the kinetic behavior of active compounds against PTP1B and the corresponding inhibition constants (Ki values). […] The plate reader recorded the absorbance of the reaction mixture every 3 mins. The enzymatic velocity of the enzyme reaction was calculated based on the time − Δabs plot. The Lineweaver−Burk plot and Dixon plot were generated by GraphPad Prism 8 in order to determine the type of PTP1B inhibition and Ki.

PTP1B [7] = target: T1, PTP1B; test: Fluorescence quenching measurement of PTP1B; assay type: binding; set-up: purchased Abcam (Shanghai) Trading Co., Ltd. ab51277; settings: for Kd: read-out: K A (binding constant) (converted)
Description: 180 μL of the buffer with 10 μL of the PTP1B at the concentration used in the assays were added into the 96-well black plates followed by 10 μL different concentrations (0, 6.25, 9.37, 12.5, 18.75, 25, and 50 μM) of inhibitor. The excitation wavelength was set at 250 nm, and the fluorescence emission spectra were collected from 300-400 nm with an emission bandwidth of 2 nm. The quenching parameters such as the Stern-Volmer constant (KSV), binding constant (KA), and the number of binding sites (n) were determined by the formula [33]. (4) F0/F=1+KSVQf,logFo−F/F=logKA+nlogQf, where F0 and F are the fluorescence intensities in the absence and presence of a quencher and [Q]f is a concentration of compounds.

[8] = tested on: LPS-stimulated NO release in RAW 264.7 cells; test: Nitrite (Griess) assay of LPS-stimulated NO release; assay type: cell-based; settings: Mus musculus, RAW264.7, LPS (1 μg/mL)-stimulated RAW 264.7 cells; mean ± SD, n = 3; read-out: IC50 NO production anti-inflammatory effect
Description: The level of NO production was tested by measuring the nitrite level in the culture medium with the Griess method. Cells were seeded at a density of 2 × 10^4 cells per well in 96-well plates. […] A microplate reader was employed for the optical density measurement at 570 nm.

Row | SMILES | IC50 [2] [µM] | IC50 [3] [µM] | IC50 (PTP1B [4]) [µM] | IC50 [5] [µM] | Ki (PTP1B [6]) [µM] | Inhibitory mode (PTP1B [6]) | K SV (Stern-Volmer constant) (PTP1B [7]) [L/mol] | n (number of binding sites) (PTP1B [7]) | Kd (PTP1B [7]) [µM] | IC50 [8] [µM] | increase of glucose consumption [1] [%] | effect on glucose uptake (in words) [1]
1 | CN(CCOc1ccc(CC2SC(=O)NC2=O)cc1)c1ccccn1 (stereo not drawn) [rosiglitazone, reference compound] |  |  |  |  |  |  |  |  |  |  | 46.7 | 
2 | COc1cc(C2Oc3c(OC)cc(CCCOC4OC(CO)C(O)C(O)C4O)cc3C2CO)ccc1O [Compound 17, (7S,8R)-dihydrodehydrodiconiferyl alcohol-9′-O-β-D-glucoside] | > 100 | 33.49 ± 0.31 | > 100 | > 100 |  |  |  |  |  | 17.3 ± 0.6 |  | 
3 | COc1cc([C@H]2OC[C@H]3[C@@H]2CO[C@@H]3c2cc(OC)c(O)c(OC)c2)ccc1O [Compound 30, (+)-medioresinol] | 95.7 ± 2.44 | 25.58 ± 0.12 | 26.75 ± 0.21 | 34.4 ± 0.5 |  |  |  |  |  | 55.5 ± 1.85 |  | 
4 | COc1c(O)cc(O)c2c(=O)cc(-c3ccccc3)oc12 [Compound 6, wogonin] | 99.36 ± 0.44 | > 100 | 22.2 ± 0.58 | > 100 | 4.18 | Mixed-type | 22000 | 1.12 | 76.9 | 49.4 ± 1.85 |  | little effect
5 | COc1cc([C@@H](O)[C@H](CO)Oc2ccc(CCCO)cc2OC)ccc1O [Compound 20, erythro-(7R,8S)-guaiacyl-glycerol-β-O-4′-dihydroconiferyl ether] | > 100 | 60.92 ± 0.46 | 93.6 ± 1.07 | 52.6 ± 1.33 |  |  |  |  |  | 53.16 ± 0.24 |  | 
6 | COc1cc([C@H](O)[C@H](CO)Oc2ccc(CCCO[C@@H]3O[C@H](CO)[C@@H](O)[C@H](O)[C@H]3O)cc2OC)ccc1O [Compound 23, threo-(7R,8R)-4,7,9,9′-tetrahydroxy-3,3′-dimethoxy-8-O-4′-neolignan-9′-O-β-D-glucopyranoside] | > 100 | 68.2 ± 0.76 | 90.06 ± 0.47 | 82.12 ± 0.56 |  |  |  |  |  | 73.16 ± 0.34 |  | 

Continued, in another order:

Row | IC50 [2] [µM] | IC50 [3] [µM] | IC50 (PTP1B [4]) [µM] | IC50 [5] [µM] | Ki (PTP1B [6]) [µM] | Inhibitory mode (PTP1B [6]) | K SV (Stern-Volmer constant) (PTP1B [7]) [L/mol] | n (number of binding sites) (PTP1B [7]) | Kd (PTP1B [7]) [µM] | IC50 [8] [µM] | SMILES | increase of glucose consumption [1] [%] | effect on glucose uptake (in words) [1]
7 | 46.8 ± 1.53 | 34.91 ± 0.07 | 9.41 ± 0.08 | 37.3 ± 0.74 | 1.49 | Competitive | 37000 | 1.08 | 10.5 |  | COC1(C)CC2c3c(cc(O)cc3O1)OC(c1ccc(O)c(O)c1)C2O (stereo not drawn) [Compound 1, Livischinol] | 48.9 | stimulated glucose uptake
8 | 78.76 ± 0.61 | 63.11 ± 0.24 | 30.2 ± 0.45 | > 100 |  |  |  |  |  | 70.79 ± 0.67 | COc1cc(O)c2c(=O)cc(-c3ccc(O)cc3)oc2c1 [Compound 7, genkwanin] |  | 
9 | 87.78 ± 0.74 | 24.6 ± 0.31 | > 100 | 88.62 ± 0.49 |  |  |  |  |  | 76.69 ± 0.51 | COc1cc(C2Oc3c(OC)cc(CCCO)cc3C2CO)ccc1O [Compound 13, (7S,8R)-dihydrodehydrodiconiferyl alcohol] |  | 
10 | 60.3 ± 0.16 | 45.13 ± 0.41 | > 100 | 62.2 ± 1.03 |  |  |  |  |  | 70 ± 5.33 | COc1cc(C2Oc3c(OC)cc(CCCO)cc3C2CO)cc(OC)c1O [Compound 14, (7S,8R)-5-methoxydihydrodehydroconiferyl alcohol] |  | 
11 | 23.1 ± 0.27 | 13 ± 0.27 | 15.8 ± 0.29 | 29.6 ± 0.4 | 2.8 | Competitive | 23000 | 0.97 | 17.2 |  | COc1cc(O)cc2c1C(=O)c1c(cc(C)c(C(=O)OCC(O)CO)c1O)C2=O (stereo not drawn) [Compound 44, variecolorquinones A] | 42.8 | stimulated glucose uptake
